Laboratory results as given in the NIST ThermoML archive (doi:10.1016/j.fluid.2018.07.014).
± gives the expanded uncertainty stated by the source.

Assay: Boiling temperature at pressure P
Conditions: Liquid, Closed cell (Static) method

Boiling temperature at pressure P (9.6 kPa) [°C]	Boiling temperature at pressure P (13.7 kPa) [°C]	Boiling temperature at pressure P (23.8 kPa) [°C]	Boiling temperature at pressure P (38.9 kPa) [°C]	Boiling temperature at pressure P (54.5 kPa) [°C]	Boiling temperature at pressure P (69.5 kPa) [°C]	Boiling temperature at pressure P (91.7 kPa) [°C]	Boiling temperature at pressure P (7.1 kPa) [°C]	Boiling temperature at pressure P (8.9 kPa) [°C]	Boiling temperature at pressure P (13.9 kPa) [°C]	Boiling temperature at pressure P (24.1 kPa) [°C]	Boiling temperature at pressure P (39.1 kPa) [°C]	Boiling temperature at pressure P (52.7 kPa) [°C]	Boiling temperature at pressure P (69.3 kPa) [°C]	Boiling temperature at pressure P (6.9 kPa) [°C]	Boiling temperature at pressure P (9 kPa) [°C]	Boiling temperature at pressure P (14.1 kPa) [°C]	Boiling temperature at pressure P (39.5 kPa) [°C]	Boiling temperature at pressure P (54.3 kPa) [°C]	Boiling temperature at pressure P (92.1 kPa) [°C]	SMILES
30.2 ± 7.1	36.8 ± 5.2	47 ± 3.9	57.0 ± 3.1	64.4 ± 2.7	69.7 ± 2.4	76.6 ± 2.4	–	–	–	–	–	–	–	–	–	–	–	–	–	CCO [ethanol]
–	–	–	–	–	–	141.8 ± 2.9	72.2 ± 10	77.6 ± 9	88.0 ± 6.9	101.8 ± 4.9	115.2 ± 3.7	122.6 ± 3	130.8 ± 2.9	–	–	–	–	–	–	CCCCC(=O)OCC [ethyl pentanoate]
–	–	–	–	–	90.0 ± 2.6	–	–	–	–	64.2 ± 4.3	–	–	–	38.8 ± 8.5	44 ± 7.7	53 ± 6	75.7 ± 3.4	83.8 ± 2.8	98.0 ± 2.5	O [water]
